Laboratory results published in ChEMBL document CHEMBL1201862, “PubChem BioAssay data set” (2004).
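How tested: cells in 96-well plates exposed to compound for 48 hours at five concentrations. Abbreviation: GI50, concentration required for 50% inhibition of growth.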 The source made the active and inactive calls. No stated cut-off is given here; in the data, active = GI50 up to about 1.1 µM and inactive = higher.

Tests used:
Test in all cases: NCI-60 cell line screen, 48 h
[1] = test system: ACHN
[2] = test system: HCT-15
[3] = test system: HOP-92
[4] = test system: K562
[5] = test system: LOX IMVI
[6] = test system: M14
[7] = test system: MCF7
[8] = test system: MDA-N
[9] = test system: Malme-3M
[10] = test system: OVCAR-5
[11] = test system: PC-3
[12] = test system: SF-295
[13] = test system: SF-539
[14] = test system: SK-MEL-5
[15] = test system: SK-OV-3
[16] = test system: SN12C
[17] = test system: T47D
[18] = test system: UACC-62
[19] = test system: UO-31
[20] = test system: A498

SMILES	GI50 [1]	GI50 [2]	GI50 [3]	GI50 [4]	GI50 [5]	GI50 [6]	GI50 [7]	GI50 [8]	GI50 [9]	GI50 [10]	GI50 [11]	GI50 [12]	GI50 [13]	GI50 [14]	GI50 [15]	GI50 [16]	GI50 [17]	GI50 [18]	GI50 [19]	GI50 [20]
NS(=O)(=O)c1ccc(-c2ccc([As](=O)(O)O)cc2)cc1	> 100 µM (inactive)	> 100 µM	> 100 µM (inactive)	> 100 µM (inactive)	> 100 µM (inactive)	> 100 µM (inactive)	> 100 µM (inactive)	> 100 µM (inactive)	> 100 µM (inactive)	> 100 µM (inactive)	> 100 µM (inactive)	> 100 µM (inactive)	> 100 µM (inactive)	> 100 µM (inactive)	> 100 µM (inactive)	> 100 µM (inactive)	> 100 µM (inactive)	> 100 µM (inactive)	> 100 µM (inactive)	
CC(C)C1=C(O)C(=O)C2=C(C1=O)C(O)CC1C(C)(C)CCCC21C (stereo not drawn)	3.85 µM (inactive)	3.71 µM	3.61 µM (inactive)	6.56 µM (inactive)	25.1 µM (inactive)	3.92 µM (inactive)	5.87 µM (inactive)	2 µM (inactive)	3.87 µM (inactive)	20.4 µM (inactive)	10.2 µM (inactive)	21.7 µM (inactive)	16.9 µM (inactive)	2.43 µM (inactive)	15 µM (inactive)	7.26 µM (inactive)		2.67 µM (inactive)	5.09 µM (inactive)	14.3 µM (inactive)
O=S1(=O)OCCOS(=O)(=O)C1(F)Cc1ccccc1	> 100 µM (inactive)	> 100 µM	> 100 µM (inactive)	> 100 µM (inactive)	> 100 µM (inactive)	> 100 µM (inactive)		> 100 µM (inactive)	> 100 µM (inactive)	> 100 µM (inactive)	> 100 µM (inactive)	> 100 µM (inactive)	> 100 µM (inactive)	> 100 µM (inactive)	> 100 µM (inactive)	> 100 µM (inactive)	> 100 µM (inactive)	> 100 µM (inactive)	> 100 µM (inactive)	> 100 µM (inactive)
O=C1CSC2=NC3=C(CSC/C3=C\c3ccc(Cl)cc3)C(c3ccc(Cl)cc3)N12 (stereo not drawn)	16.9 µM (inactive)	15.8 µM	10.3 µM (inactive)	21.1 µM (inactive)	12.3 µM (inactive)	19.1 µM (inactive)	19.3 µM (inactive)	> 10 µM (inactive)	40.6 µM (inactive)	61.2 µM (inactive)	5.22 µM (inactive)	12.1 µM (inactive)		14.4 µM (inactive)	52.7 µM (inactive)	12.4 µM (inactive)	32.5 µM (inactive)	24.9 µM (inactive)	12.9 µM (inactive)	
Clc1ccccc1C(SCc1ccccc1)SCc1ccccc1	> 100 µM (inactive)	75.2 µM	> 100 µM (inactive)	> 100 µM (inactive)		> 100 µM (inactive)	> 100 µM (inactive)	> 100 µM (inactive)	> 100 µM (inactive)	> 100 µM (inactive)	> 100 µM (inactive)	> 100 µM (inactive)	> 100 µM (inactive)	> 100 µM (inactive)		> 100 µM (inactive)		94.4 µM (inactive)	> 100 µM (inactive)	
CCOC(=O)C(NCc1cccc(C(F)(F)F)c1)(NC(=O)CC)C(F)(F)F (stereo not drawn)	> 100 µM (inactive)	> 100 µM	71 µM (inactive)	> 100 µM (inactive)	> 100 µM (inactive)	> 100 µM (inactive)	> 100 µM (inactive)	> 100 µM (inactive)	> 100 µM (inactive)	> 100 µM (inactive)	95.5 µM (inactive)	> 100 µM (inactive)	> 100 µM (inactive)	> 100 µM (inactive)	> 100 µM (inactive)	> 100 µM (inactive)	62.4 µM (inactive)	96.6 µM (inactive)	51.8 µM (inactive)	
C=CC[C@H]1[C@@H](O[Si](C)(C)C(C)(C)C)[C@H](n2ccc(=O)[nH]c2=O)O[C@@H]1CO[Si](C)(C)C(C)(C)C	2.33 µM (inactive)	1.77 µM	1.21 µM (inactive)	2.2 µM (inactive)	1.63 µM (inactive)	1.57 µM (inactive)	1.77 µM (inactive)		2.89 µM (inactive)	1.5 µM (inactive)	2.44 µM (inactive)	1.98 µM (inactive)	4.19 µM (inactive)	1.72 µM (inactive)	1.36 µM (inactive)	1.52 µM (inactive)	2.61 µM (inactive)	1.74 µM (inactive)	1.69 µM (inactive)	3.01 µM (inactive)
CCC1(CC)C(=O)CC[C@@]2(C)C1=CC[C@H]1[C@@H]3CC[C@H](O)[C@@]3(C)CC[C@@H]12	40.4 µM (inactive)	46.9 µM	37.5 µM (inactive)	16.4 µM (inactive)	19.4 µM (inactive)	43.4 µM (inactive)		31.3 µM (inactive)	36.1 µM (inactive)	53.3 µM (inactive)	30.3 µM (inactive)	22.8 µM (inactive)	29.2 µM (inactive)	47.3 µM (inactive)	46.1 µM (inactive)	16.7 µM (inactive)	28.9 µM (inactive)	54.7 µM (inactive)	18.4 µM (inactive)	23.8 µM (inactive)
Cc1ccc(S(=O)(=O)N(CCN2C(=O)c3ccccc3C2=O)c2cc3c4c(c2)Oc2cc(N(CCN5C(=O)c6ccccc6C5=O)S(=O)(=O)c5ccc(C)cc5)cc5c2C4(C)c2c(cc(N(CCN4C(=O)c6ccccc6C4=O)S(=O)(=O)c4ccc(C)cc4)cc2O5)O3)cc1	> 100 µM (inactive)	> 100 µM		> 100 µM (inactive)	> 100 µM (inactive)	35.7 µM (inactive)	> 100 µM (inactive)	> 100 µM (inactive)		> 100 µM (inactive)	> 100 µM (inactive)	> 100 µM (inactive)	> 100 µM (inactive)	> 100 µM (inactive)	> 100 µM (inactive)	> 100 µM (inactive)	> 100 µM (inactive)	> 100 µM (inactive)	> 100 µM (inactive)	
O=C(c1ccc2ccccc2c1)C1(I)S(=O)(=O)OCCOS1(=O)=O	> 100 µM (inactive)	> 100 µM		> 100 µM (inactive)		> 100 µM (inactive)	> 100 µM (inactive)	> 100 µM (inactive)	> 100 µM (inactive)	> 100 µM (inactive)	> 100 µM (inactive)	0.0102 µM (active)		> 100 µM (inactive)		> 100 µM (inactive)			> 100 µM (inactive)	
O=C1c2ccccc2-c2ccc(/N=N/c3c(O)ccc4ccccc34)cc21		> 100 µM	> 100 µM (inactive)	> 100 µM (inactive)	> 100 µM (inactive)	> 100 µM (inactive)		> 100 µM (inactive)	19.7 µM (inactive)	> 100 µM (inactive)	> 100 µM (inactive)	> 100 µM (inactive)		> 100 µM (inactive)	> 100 µM (inactive)	> 100 µM (inactive)	> 100 µM (inactive)	> 100 µM (inactive)	> 100 µM (inactive)	> 100 µM (inactive)
O=c1cc2oc3ccc4ccccc4c3cc-2c(=O)[nH]1	17 µM (inactive)	7.55 µM		19.8 µM (inactive)	7.71 µM (inactive)	18.2 µM (inactive)	19.1 µM (inactive)	11.3 µM (inactive)	16.2 µM (inactive)	17.6 µM (inactive)	10.6 µM (inactive)	20.7 µM (inactive)	9.79 µM (inactive)	15.5 µM (inactive)	20.3 µM (inactive)			17.9 µM (inactive)	11 µM (inactive)	16.1 µM (inactive)
N=C1/C(=C/c2ccccc2)C(=O)N=C2SC=NN12	> 100 µM (inactive)	> 100 µM	> 100 µM (inactive)	> 100 µM (inactive)	> 100 µM (inactive)	> 100 µM (inactive)	> 100 µM (inactive)	> 100 µM (inactive)	> 100 µM (inactive)	> 100 µM (inactive)	> 100 µM (inactive)	> 100 µM (inactive)	29.7 µM (inactive)	> 100 µM (inactive)	> 100 µM (inactive)	> 100 µM (inactive)	> 100 µM (inactive)	> 100 µM (inactive)	> 100 µM (inactive)	
Cc1c(C2CCSc3ccccc3N2)sc2ccccc12 (stereo not drawn)	> 100 µM (inactive)	74.5 µM	> 100 µM (inactive)	51.5 µM (inactive)	> 100 µM (inactive)	> 100 µM (inactive)	62.2 µM (inactive)	39.8 µM (inactive)	64.3 µM (inactive)		> 100 µM (inactive)	> 100 µM (inactive)	> 100 µM (inactive)	> 100 µM (inactive)	> 100 µM (inactive)	> 100 µM (inactive)	87.9 µM (inactive)	> 100 µM (inactive)	52.5 µM (inactive)	
O=C(c1ccc2ccccc2c1)N(Cc1cccnc1)C(=S)N(Cc1cccnc1)C(=O)c1ccc2ccccc2c1	32.1 µM (inactive)	32.1 µM	26.5 µM (inactive)	41.6 µM (inactive)	19 µM (inactive)	20.8 µM (inactive)	32.7 µM (inactive)		> 100 µM (inactive)	55 µM (inactive)	28.3 µM (inactive)	34.7 µM (inactive)	40 µM (inactive)	20.6 µM (inactive)	46.3 µM (inactive)	64 µM (inactive)	26.3 µM (inactive)	26 µM (inactive)	28.6 µM (inactive)	32.9 µM (inactive)
